Reference: patent publication US8551999B2, “Heterocyclic compound and pharmaceutical composition thereof” (Otsuka Pharmaceutical Co., Ltd., priority 2007, dated 2013)

| melting point | SMILES |
| --- | --- |
| 245.4 to 247.6 °C | Br.CN(C(=O)c1ccc(C(F)(F)F)cc1)c1ccc(Oc2ccc3cc(C(=O)N4CCN(Cc5ccc(OC(F)(F)C(F)F)cc5)CC4)n(C)c3c2)nc1 [Example 443, N-Methyl-N-[6-(1-methyl-2-{4-[4-(1,1,2,2-tetrafluoroethoxy)-benzyl]piperazine-1-carbonyl}-1H-indol-6-yloxy)pyridin-3-yl]-4-trifluoromethylbenzamide hydrobromide] |
| 204.9 to 208.5 °C | Br.CCCOc1ccc(CN2CCN(C(=O)c3cc4ccc(Oc5ccc(N(C)C(=O)c6ccc(Cl)c(Cl)c6)cn5)cc4n3C)CC2)cc1 [Example 487, 3,4-Dichloro-N-methyl-N-(6-{1-methyl-2-[4-(4-propoxybenzyl)-piperazine-1-carbonyl]-1H-indol-6-yloxy}pyridin-3-yl)benzamide hydrobromide] |
| 116.5 to 116.6 °C | Cc1ccc(S(=O)(=O)N(C)c2ccc(Oc3ccc4cc(C(=O)N5CCN(Cc6ccc(OC(CF)CF)cc6)CC5)n(C)c4c3)nc2)cc1 [Example 523, N-[6-(2-{4-[4-(2-Fluoro-1-fluoromethylethoxy)benzyl]piperazine-1-carbonyl}-1-methyl-1H-indol-6-yloxy)pyridin-3-yl]-4,N-dimethyl-benzenesulfonamide] |
| 223 to 225 °C (dec.) | Br.Br.Cc1nc(Oc2ccc3c(c2)cc(C(=O)N2CCN(Cc4ccncc4)CC2)n3C)ccc1NC(=O)c1ccc(C(F)(F)F)cc1 [Example 565, N-{2-Methyl-6-[1-methyl-2-(4-pyridin-4-ylmethylpiperazine-1-carbonyl)-1H-indol-5-yloxy]pyridin-3-yl}-4-trifluoromethyl-benzamide dihydrobromide] |
| 114 to 117 °C | CN(C(=O)c1ccc(C(F)(F)F)cc1)c1ccc(Oc2ccc3c(c2)cc(C(=O)N2CCN(Cc4ccccn4)CC2)n3C)nc1.O=C(O)C(=O)O.O=C(O)C(=O)O [Example 561, N-Methyl-N-{6-[1-methyl-2-(4-pyridin-2-ylmethylpiperazine-1-carbonyl)-1H-indol-5-yloxy]pyridin-3-yl}-4-trifluoromethyl-benzamide dioxalate] |
| 112 to 115 °C | Cc1cc(CN2CCN(C(=O)c3cc4cc(Oc5ccc(N(C)C(=O)c6ccc(C(F)(F)F)cc6)cn5)ccc4n3C)CC2)no1.O=C(O)/C=C\C(=O)O [Example 568, N-Methyl-N-(6-{1-methyl-2-[4-(5-methylisoxazol-3-ylmethyl)-piperazine-1-carbonyl]-1H-indol-5-yloxy}pyridin-3-yl)-4-tri-fluoromethylbenzamide maleate] |
| 137 to 139 °C | CS(=O)(=O)O.CS(=O)(=O)O.Cn1c(C(=O)N2CCN(Cc3ccccn3)CC2)cc2cc(Oc3ccc(NC(=O)c4ccc(C(F)(F)F)cc4)cn3)ccc21 [Example 560, N-{6-[1-Methyl-2-(4-pyridin-2-ylmethylpiperazine-1-carbonyl)-1H-indol-5-yloxy]pyridin-3-yl}-4-trifluoromethylbenzamide bismethanesulfonate] |

Further lines, the compound ahead of its results:

| SMILES | melting point |
| --- | --- |
| CN(C(=O)c1ccc(C(F)(F)F)cc1F)c1ccc(Oc2ccc3cc(C(=O)N4CCN(Cc5ccc(OCC(F)(F)F)cc5)CC4)n(C)c3c2)nc1.Cl | 234.5 to 235.8 °C |
| COc1ccc(CN2CCN(C(=O)c3cc4c(C)c(Oc5ccc(N(C)C(=O)c6ccc(C(F)(F)F)cc6)cn5)ccc4n3C)CC2)cc1 [Example 426, N-(6-{2-[4-(4-Methoxybenzyl)piperazine-1-carbonyl]-1,4-dimethyl-1H-indol-5-yloxy}pyridin-3-yl)-N-methyl-4-trifluoromethyl-benzamide] | 184 to 186 °C |
| Br.CC(C)Oc1ccc(CN2CCN(C(=O)c3cc4ccc(Oc5ccc(NC(=O)c6ccc(OC(F)(F)F)cc6)cn5)cc4n3C)CC2)cc1 [Example 251, N-(6-{2-[4-(4-Isopropoxybenzyl)piperazine-1-carbonyl]-1-methyl-1H-indol-6-yloxy}pyridin-3-yl)-4-trifluoromethoxybenzamide hydrobromide] | 265 to 267 °C (dec.) |
| Br.CCc1ccc(CN2CCN(C(=O)c3cc4cc(Oc5ccc(NC(=O)c6ccc(C(F)(F)F)cc6)cn5)ccc4n3C)CC2)cc1 [Example 390, N-(6-{2-[4-(4-Ethylbenzyl)piperazine-1-carbonyl]-1-methyl-1H-indol-5-yloxy}pyridin-3-yl)-4-trifluoromethylbenzamide hydrobromide] | 239 to 241 °C |
| Br.Br.Cc1cc(Oc2ccc3c(c2)cc(C(=O)N2CCN(Cc4ccncc4)CC2)n3C)ncc1NC(=O)c1ccc(C(F)(F)F)cc1 [Example 362, N-{4-Methyl-6-[1-methyl-2-(4-pyridin-4-ylmethylpiperazine-1-carbonyl)-1H-indol-5-yloxy]pyridin-3-yl}-4-trifluoromethyl-benzamide dihydrobromide] | 228 to 232 °C (dec.) |
| Br.COc1ccc(CN2CCN(C(=O)c3cc4cc(Oc5ccc(NC(=O)c6ccc(C(F)(F)F)c(C)c6)cn5)ccc4n3C)CC2)cc1 [Example 19, N-(6-{2-[4-(4-Methoxybenzyl)piperazine-1-carbonyl]-1-methyl-1H-indol-5-yloxy}pyridin-3-yl)-3-methyl-4-trifluoromethylbenzamide hydrobromide] | 188 to 191 °C |
| Cn1c(C(=O)N2CCN(Cc3ccccn3)CC2)cc2cc(Oc3ncc(NC(=O)c4ccc(C(F)(F)F)cc4)cn3)ccc21 [Example 382, N-{2-[1-Methyl-2-(4-pyridin-2-ylmethylpiperazine-1-carbonyl)-1H-indol-5-yloxy]pyrimidin-5-yl}-4-trifluoromethylbenzamide] | 181 to 182 °C |
| Br.Cn1c(C(=O)N2CCN(Cc3ccccc3)CC2)cc2cc(Oc3ccc(NCc4ccc(Cl)c(Cl)c4)cn3)ccc21 [Example 334, (4-Benzylpiperazin-1-yl)(5-{5-[(3,4-dichlorophenyl)methylamino]-pyridin-2-yloxy}-1-methyl-1H-indol-2-yl)methanone hydrobromide] | 209 to 217 °C |
| Br.CN(C(=O)c1ccc(C(F)(F)F)cc1)c1ccc(Oc2ccc3cc(C(=O)N4CCN(Cc5ccc6c(c5)OC(F)(F)O6)CC4)n(C)c3c2)nc1 [Example 440, N-(6-{2-[4-(2,2-Difluorobenzo[1,3]dioxol-5-ylmethyl)piperazine-1-carbonyl]-1-methyl-1H-indol-6-yloxy}pyridin-3-yl)-N-methyl-4-tri-fluoromethylbenzamide hydrobromide] | 243.3 to 245.1 °C |
| Br.CCOc1ccc(CN2CCN(C(=O)c3cc4cc(Oc5cc(C)c(N(C)C(=O)c6ccc(Cl)c(Cl)c6)cn5)ccc4n3C)CC2)cc1 [Example 366, 3,4-Dichloro-N-(6-{2-[4-(4-ethoxybenzyl)piperazine-1-carbonyl]-1-methyl-1H-indol-5-yloxy}-4-methylpyridin-3-yl)-N-methylbenzamide hydrobromide] | 201 to 204 °C |
| COc1ccc(CNC2CCN(C(=O)c3cc4cc(Oc5ccc(NC(=O)c6ccc(C(F)(F)F)cc6)cn5)ccc4n3C)CC2)cc1 [Example 233, N-[6-(2-{4-[(4-Methoxyphenyl)methylamino]piperidine-1-carbonyl}-1-methyl-1H-indol-5-yloxy)pyridin-3-yl]-4-trifluoromethyl-benzamide] | 139 to 142 °C |
